Usually EC50 stands for the concentration that produces a half-maximal response.

In the test the target is T1, hTAS1R2 (TAS1R2/TAS1R3 sweet taste receptor) (Homo sapiens, UniProt Q8TE23).
T1 construct: with hTAS1R3 (TAS1R3)
T1 sequence (Q8TE23 20-839): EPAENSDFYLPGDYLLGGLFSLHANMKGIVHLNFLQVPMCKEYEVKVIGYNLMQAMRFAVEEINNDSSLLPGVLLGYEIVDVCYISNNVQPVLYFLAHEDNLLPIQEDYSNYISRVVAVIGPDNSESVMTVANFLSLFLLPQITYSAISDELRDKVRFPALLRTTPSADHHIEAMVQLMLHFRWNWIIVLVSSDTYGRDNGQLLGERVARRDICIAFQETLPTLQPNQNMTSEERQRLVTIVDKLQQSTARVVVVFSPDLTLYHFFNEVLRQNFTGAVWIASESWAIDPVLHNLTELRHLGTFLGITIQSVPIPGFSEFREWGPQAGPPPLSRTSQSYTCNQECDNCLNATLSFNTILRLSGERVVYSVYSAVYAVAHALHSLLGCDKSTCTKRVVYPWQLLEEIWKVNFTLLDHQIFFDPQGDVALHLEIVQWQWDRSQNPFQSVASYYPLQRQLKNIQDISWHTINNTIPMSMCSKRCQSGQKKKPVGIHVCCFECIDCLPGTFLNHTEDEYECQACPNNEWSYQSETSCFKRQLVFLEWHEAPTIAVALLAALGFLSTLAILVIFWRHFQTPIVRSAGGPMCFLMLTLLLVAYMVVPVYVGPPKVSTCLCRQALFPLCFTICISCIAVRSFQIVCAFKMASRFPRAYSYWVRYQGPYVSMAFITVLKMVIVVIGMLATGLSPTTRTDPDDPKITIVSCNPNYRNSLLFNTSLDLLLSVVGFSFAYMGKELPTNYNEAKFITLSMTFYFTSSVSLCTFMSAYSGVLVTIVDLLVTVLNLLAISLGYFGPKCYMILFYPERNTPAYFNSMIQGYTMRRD
T1 sequence (Q7RTX0 21-852 partner): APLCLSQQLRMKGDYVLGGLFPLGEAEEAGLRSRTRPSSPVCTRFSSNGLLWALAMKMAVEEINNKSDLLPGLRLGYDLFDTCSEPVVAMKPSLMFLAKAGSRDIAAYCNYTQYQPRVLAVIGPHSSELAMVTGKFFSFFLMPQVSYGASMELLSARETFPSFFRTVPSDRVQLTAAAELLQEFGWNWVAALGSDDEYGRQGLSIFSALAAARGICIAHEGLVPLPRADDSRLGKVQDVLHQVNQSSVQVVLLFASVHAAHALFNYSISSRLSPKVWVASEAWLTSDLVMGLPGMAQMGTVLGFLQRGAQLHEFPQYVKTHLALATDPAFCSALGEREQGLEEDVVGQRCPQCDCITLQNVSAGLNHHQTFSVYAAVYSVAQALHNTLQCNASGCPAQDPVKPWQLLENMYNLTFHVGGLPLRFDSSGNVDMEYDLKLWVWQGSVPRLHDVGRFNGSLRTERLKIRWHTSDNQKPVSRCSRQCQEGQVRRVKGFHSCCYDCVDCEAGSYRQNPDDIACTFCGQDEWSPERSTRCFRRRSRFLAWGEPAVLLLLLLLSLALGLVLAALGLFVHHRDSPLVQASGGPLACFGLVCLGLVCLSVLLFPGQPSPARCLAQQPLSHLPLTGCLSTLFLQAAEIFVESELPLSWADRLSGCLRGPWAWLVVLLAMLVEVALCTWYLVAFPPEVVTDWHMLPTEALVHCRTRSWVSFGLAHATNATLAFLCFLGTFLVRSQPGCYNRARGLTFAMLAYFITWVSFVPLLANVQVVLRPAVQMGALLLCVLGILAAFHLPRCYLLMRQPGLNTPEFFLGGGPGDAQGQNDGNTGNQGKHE
The experiment in a line: calcium mobilization (GCaMP5G, FLIPR) in HEK293T-Gα[…]gust44 cells transfected with hTAS1R2 and hTAS1R3, mock-subtracted. Type of test: cell-based. In general terms: Calcium assays in cells follow changes in intracellular calcium, usually with a dye or a luminescent sensor.

With `OC[C@H]1O[C@H](O[C@]2(CCl)O[C@H](CCl)[C@@H](O)[C@@H]2O)[C@H](O)[C@@H](O)[C@H]1Cl` [sucralose], the concentration giving a half-maximal response (EC50) was found to be 52 ± 7 µM.

The values above are taken from article PMC8625740, “Triterpenoid Saponins from the Cultivar “Green Elf” of Pittosporum tenuifolium” (Molecules, 2021).
